Data from PubChem BioAssay AID306 (DTP/NCI, 2004).
Where “and” joins values, the source holds several entries; their conditions need not be identical. Equal values may be shown once. Inconclusive results and toxic doses are left out.

Test system: BDF1 mice, L1210 Methyl-GAG-resistant leukemia, survival T/C
Experiment: NCI In Vivo Anticancer Drug Screen. Data for tumor model L1210 Leukemia resistant to Methyl-GAG; NSC 32946 (subcutaneous) in B6D2F1 (BDF1) mice
Details: endpoint: mean survival time, higher = longer survival
Protocol: The antitumor activity of compounds was measured in mice bearing transplantable tumors. Survival or tumor size were measured and the results are expressed as the measurement made in the treated group (T) divided by the measurement made in the vehicle treated control group (C). The tumor model used in this assay is L1210 Leukemia resistant to Methyl-GAG; NSC 32946 (subcutaneous) in B6D2F1 (BDF1) mice

[1] = dose: 25.0 mg/kg/injection, schedule: Q01DX Z (ip), vehicle: carboxymethylcellulose (CMC)
[2] = dose: 100.0 mg/kg/injection, schedule: Q01DX Z (ip), vehicle: carboxymethylcellulose (CMC)
[3] = dose: 200.0 mg/kg/injection, schedule: Q01DX Z (ip), vehicle: carboxymethylcellulose (CMC)
[4] = dose: 50.0 mg/kg/injection, schedule: Q01DX Z (ip), vehicle: carboxymethylcellulose (CMC)
[5] = dose: 62.5 mg/kg/injection, schedule: Q01DX Z (ip), vehicle: carboxymethylcellulose (CMC)
[6] = dose: 125.0 mg/kg/injection, schedule: Q01DX Z (ip), vehicle: carboxymethylcellulose (CMC)
[7] = dose: 250.0 mg/kg/injection, schedule: Q01DX Z (ip), vehicle: carboxymethylcellulose (CMC)
[8] = dose: 500.0 mg/kg/injection, schedule: Q01DX Z (ip), vehicle: carboxymethylcellulose (CMC)
[9] = dose: 1000.0 mg/kg/injection, schedule: Q01DX Z (ip), vehicle: carboxymethylcellulose (CMC)

## CCN(CC)CCNc1ccc(C)c2sc3ccccc3c(=O)c12
dose: 1.56 mg/kg/injection, schedule: Q01DX Z (ip), vehicle: methylcellulose (MC)
  T/C: 97 % of control
dose: 6.25 mg/kg/injection, schedule: Q01DX Z (ip), vehicle: methylcellulose (MC)
  T/C: 102 % of control
dose: 12.5 mg/kg/injection, schedule: Q01DX Z (ip), vehicle: methylcellulose (MC)
  T/C: 104 % of control
dose: 25.0 mg/kg/injection, schedule: Q01DX Z (ip), vehicle: methylcellulose (MC)
  T/C: 103 % of control and 113 % of control
dose: 50.0 mg/kg/injection, schedule: Q01DX Z (ip), vehicle: methylcellulose (MC)
  T/C: 119 % of control
dose: 100.0 mg/kg/injection, schedule: Q01DX Z (ip), vehicle: methylcellulose (MC)
  T/C: 151 % of control

## O=c1[nH]c(=O)n(C2CC(O)C(CO)O2)cc1F (configuration not stated)
[1]
  T/C: 112 % of control
[2]
  T/C: 121 % of control
[3]
  T/C: 87 % of control and 103 % of control

## CCCSc1ncnc2nc[nH]c12
dose: 6.3 mg/kg/injection, schedule: Q01DX Z (ip), vehicle: carboxymethylcellulose (CMC)
  T/C: 107 % of control
dose: 12.5 mg/kg/injection, schedule: Q01DX Z (ip), vehicle: carboxymethylcellulose (CMC)
  T/C: 110 % of control
[1]
  T/C: 110 % of control and 118 % of control
[4]
  T/C: 117 % of control and 123 % of control
[2]
  T/C: 110 % of control

## O=C(Nc1ccc(C2=NCCCN2)cc1)c1ccc(NC(=O)c2ccc(C3=NCCCN3)cc2)cc1
dose: 0.24 mg/kg/injection, schedule: Q01DX Z (ip), vehicle: carboxymethylcellulose (CMC)
  T/C: 97 % of control
dose: 0.47 mg/kg/injection, schedule: Q01DX Z (ip), vehicle: carboxymethylcellulose (CMC)
  T/C: 101 % of control
dose: 0.95 mg/kg/injection, schedule: Q01DX Z (ip), vehicle: carboxymethylcellulose (CMC)
  T/C: 104 % of control
dose: 1.9 mg/kg/injection, schedule: Q01DX Z (ip), vehicle: carboxymethylcellulose (CMC)
  T/C: 98 % of control
dose: 1.95 mg/kg/injection, schedule: Q01DX Z (ip), vehicle: carboxymethylcellulose (CMC)
  T/C: 175 % of control and 192 % of control
dose: 3.9 mg/kg/injection, schedule: Q01DX Z (ip), vehicle: carboxymethylcellulose (CMC)
  T/C: 169 % of control and 232 % of control
dose: 7.8 mg/kg/injection, schedule: Q01DX Z (ip), vehicle: carboxymethylcellulose (CMC)
  T/C: 216 % of control
dose: 15.6 mg/kg/injection, schedule: Q01DX Z (ip), vehicle: carboxymethylcellulose (CMC)
  T/C: 112 % of control and 122 % of control

## Cn1cc(NC(=O)c2cc(NC(=O)CN=C(N)N)cn2C)cc1C(=O)NCCC(=N)N
dose: 6.3 mg/kg/injection, schedule: Q01DX Z (ip), vehicle: saline
  T/C: 112 % of control
dose: 12.5 mg/kg/injection, schedule: Q01DX Z (ip), vehicle: saline
  T/C: 102 % of control
dose: 25.0 mg/kg/injection, schedule: Q01DX Z (ip), vehicle: saline
  T/C: 91 % of control

## CC1CCOS(=O)O1 (configuration not stated)
dose: 2.5 mg/kg/injection, schedule: Q01DX Z (ip), vehicle: carboxymethylcellulose (CMC)
  T/C: 95 % of control
dose: 5.0 mg/kg/injection, schedule: Q01DX Z (ip), vehicle: carboxymethylcellulose (CMC)
  T/C: 101 % of control
dose: 10.0 mg/kg/injection, schedule: Q01DX Z (ip), vehicle: carboxymethylcellulose (CMC)
  T/C: 97 % of control
dose: 20.0 mg/kg/injection, schedule: Q01DX Z (ip), vehicle: carboxymethylcellulose (CMC)
  T/C: 97 % of control
dose: 40.0 mg/kg/injection, schedule: Q01DX Z (ip), vehicle: carboxymethylcellulose (CMC)
  T/C: 95 % of control
dose: 80.0 mg/kg/injection, schedule: Q01DX Z (ip), vehicle: carboxymethylcellulose (CMC)
  T/C: 92 % of control

## Clc1ccc(C(c2ccccc2Cl)C(Cl)Cl)cc1 (configuration not stated)
dose: 12.5 mg/kg/injection, schedule: Q01DX Z (sc), vehicle: steriod suspending solution
  T/C: 105 % of control
dose: 25.0 mg/kg/injection, schedule: Q01DX Z (sc), vehicle: steriod suspending solution
  T/C: 102 % of control
dose: 50.0 mg/kg/injection, schedule: Q01DX Z (sc), vehicle: steriod suspending solution
  T/C: 98 % of control
dose: 100.0 mg/kg/injection, schedule: Q01DX Z (sc), vehicle: steriod suspending solution
  T/C: 100 % of control
dose: 200.0 mg/kg/injection, schedule: Q01DX Z (sc), vehicle: steriod suspending solution
  T/C: 105 % of control
dose: 400.0 mg/kg/injection, schedule: Q01DX Z (sc), vehicle: steriod suspending solution
  T/C: 101 % of control
dose: 800.0 mg/kg/injection, schedule: Q01DX Z (sc), vehicle: steriod suspending solution
  T/C: 109 % of control

## CCCNc1ncnc2[nH]ncc12
dose: 5.0 mg/kg/injection, schedule: Q01DX Z (ip), vehicle: water
  T/C: 96 % of control
dose: 10.0 mg/kg/injection, schedule: Q01DX Z (ip), vehicle: water
  T/C: 93 % of control
dose: 20.0 mg/kg/injection, schedule: Q01DX Z (ip), vehicle: water
  T/C: 120 % of control
dose: 40.0 mg/kg/injection, schedule: Q01DX Z (ip), vehicle: water
  T/C: 88 % of control and 112 % of control

## C[C@H]1C(=O)O[C@@H]2CCN3CC=C(COC(=O)[C@](C)(O)[C@@]1(C)O)[C@H]23
dose: 1.88 mg/kg/injection, schedule: Q01DX Z (ip), vehicle: carboxymethylcellulose (CMC)
  T/C: 94 % of control
dose: 3.75 mg/kg/injection, schedule: Q01DX Z (ip), vehicle: carboxymethylcellulose (CMC)
  T/C: 96 % of control
dose: 7.5 mg/kg/injection, schedule: Q01DX Z (ip), vehicle: carboxymethylcellulose (CMC)
  T/C: 92 % of control
dose: 15.0 mg/kg/injection, schedule: Q01DX Z (ip), vehicle: carboxymethylcellulose (CMC)
  T/C: 92 % of control and 99 % of control
dose: 30.0 mg/kg/injection, schedule: Q01DX Z (ip), vehicle: carboxymethylcellulose (CMC)
  T/C: 105 % of control
dose: 60.0 mg/kg/injection, schedule: Q01DX Z (ip), vehicle: carboxymethylcellulose (CMC)
  T/C: 106 % of control
dose: 120.0 mg/kg/injection, schedule: Q01DX Z (ip), vehicle: carboxymethylcellulose (CMC)
  T/C: 113 % of control

## CCn1cnc2c(=S)nc[nH]c21
dose: 8.0 mg/kg/injection, schedule: Q01DX Z (ip), vehicle: carboxymethylcellulose (CMC)
  T/C: 113 % of control
dose: 16.0 mg/kg/injection, schedule: Q01DX Z (ip), vehicle: carboxymethylcellulose (CMC)
  T/C: 106 % of control
dose: 31.0 mg/kg/injection, schedule: Q01DX Z (ip), vehicle: carboxymethylcellulose (CMC)
  T/C: 120 % of control

## O=CN(O)CC(=O)O
[5]
  T/C: 108 % of control
[6]
  T/C: 101 % of control
[7]
  T/C: 101 % of control
[8]
  T/C: 102 % of control and 110 % of control
[9]
  T/C: 105 % of control

## C[C@]12CCC(=O)C=C1CC[C@@H]1[C@@H]2CC[C@@]2(C)[C@H]1CC[C@]2(C)O
dose: 16.0 mg/kg/injection, schedule: Q01DX Z (sc), vehicle: steriod suspending solution
  T/C: 97 % of control
dose: 32.0 mg/kg/injection, schedule: Q01DX Z (sc), vehicle: steriod suspending solution
  T/C: 105 % of control
dose: 62.5 mg/kg/injection, schedule: Q01DX Z (sc), vehicle: steriod suspending solution
  T/C: 89 % of control
dose: 63.0 mg/kg/injection, schedule: Q01DX Z (sc), vehicle: steriod suspending solution
  T/C: 97 % of control
dose: 125.0 mg/kg/injection, schedule: Q01DX Z (sc), vehicle: steriod suspending solution
  T/C: 95 % of control and 101 % of control

## N#Cc1cn(C2OC(CO)C(O)C2O)c2ncnc(N)c12 (configuration not stated)
dose: 63.0 micrograms/kg/injection, schedule: Q01DX Z (ip), vehicle: carboxymethylcellulose (CMC)
  T/C: 96 % of control
dose: 125.0 micrograms/kg/injection, schedule: Q01DX Z (ip), vehicle: carboxymethylcellulose (CMC)
  T/C: 102 % of control
dose: 250.0 micrograms/kg/injection, schedule: Q01DX Z (ip), vehicle: carboxymethylcellulose (CMC)
  T/C: 115 % of control
dose: 500.0 micrograms/kg/injection, schedule: Q01DX Z (ip), vehicle: carboxymethylcellulose (CMC)
  T/C: 93 % of control

## O=C1C(NC(=O)C2CCCCC2)=C(N2CC2)C(=O)C(NC(=O)C2CCCCC2)=C1N1CC1
[1]
  T/C: 100 % of control
[4]
  T/C: 96 % of control
[2]
  T/C: 114 % of control
[3]
  T/C: 108 % of control and 118 % of control
dose: 400.0 mg/kg/injection, schedule: Q01DX Z (ip), vehicle: carboxymethylcellulose (CMC)
  T/C: 120 % of control
dose: 800.0 mg/kg/injection, schedule: Q01DX Z (ip), vehicle: carboxymethylcellulose (CMC)
  T/C: 104 % of control

## N[C@@H](Cc1ccc(N(CCCl)CCCl)cc1)C(=O)O
dose: 1.25 mg/kg/injection, schedule: Q01DX Z (ip), vehicle: saline
  T/C: 92 % of control
dose: 2.5 mg/kg/injection, schedule: Q01DX Z (ip), vehicle: saline
  T/C: 106 % of control
dose: 5.0 mg/kg/injection, schedule: Q01DX Z (ip), vehicle: saline
  T/C: 123 % of control
dose: 10.0 mg/kg/injection, schedule: Q01DX Z (ip), vehicle: saline
  T/C: 92 % of control

## O=CCC(O)C(O)C(O)CO (configuration not stated)
[5]
  T/C: 98 % of control
[6]
  T/C: 103 % of control
[7]
  T/C: 101 % of control
[8]
  T/C: 119 % of control
[9]
  T/C: 108 % of control
dose: 2000.0 mg/kg/injection, schedule: Q01DX Z (ip), vehicle: carboxymethylcellulose (CMC)
  T/C: 90 % of control
